Laboratory results from EP0535336A2, “MK protein as cell growth inhibitor” (AMERICAN CYANAMID COMPANY, priority 1991, dated 1993).

Legend:
[1] = system: human embryonal carcinoma (EC) cell line NT2/D1; experiment: Retinoic acid induction of NT2/D1 cells (differentiation, northern analysis); type: cell-based; settings: nine days of RA, 0.01 to 10 µM, normalized to β-actin probe
Protocol: The human embryonal carcinoma (EC) cell line NT2/D1 can be induced to differentiate at concentrations of retinoic acid (RA) varying from 0.01 to 10 µM, with the proportion of differentiating EC cells ranging from 50% at […] RA to greater than 99% at […] RA. The expression of MK and HBNF during differentiation of NT2/D1 is studied, at concentrations ranging from 0.01 to 10 µM. After nine days of exposure to RA, total RNA was extracted from cells and probed for gene expression by northern analysis. Expression of both gene follows a similar pattern. Levels of mRNA expression remain at a steady background level. When RNA hybridization signals are normalized to a control β-actin probe, the maximum increases are calculated to be 6-fold for HBNF and 11-fold for MK. […] In this cell line, MK gene expression is induced 8-10 fold above background.
The human embryonal carcinoma cell line Nt2/D1 is grown. For retinoic acid induction, cells are grown and resuspended in DMEM medium containing 10% bovine calf serum and resuspended in DMEM medium containing 10% bovine calf serum (Hyclone Laboratories, Inc.) at a density of 5 x 10⁵ cells per 100 mm dish. Varying concentrations of all-trans retinoic acid in dimethyl sulfoxide (10 µl) is added and cells are incubated for 9 days. Fresh medium and RA are added at days 4 and 8. […]

mouse EC cell line, HM-1 = settings: retinoic acid induction; cited from earlier work

CC1=C(/C=C/C(C)=C/C=C/C(C)=C/C(=O)O)C(C)(C)CCC1 [RA, all-trans retinoic acid]
maximum increase of HBNF mRNA expression [1]: 6 fold | maximum increase of MK mRNA expression [1]: 11 fold | MK gene expression induced above background (mouse EC cell line, HM-1): 8-10 fold
